Blank lines part the entries; values can stand above or below the compound they belong to.
Tests used:
[1] = system: Fibroblast growth factor receptor 3 (Homo sapiens), P22607 [G697C]; settings: at 10 µM
[2] = biological target: Mitogen-activated protein kinase kinase kinase 20 (Homo sapiens) (UniProt Q9NYL2); assay: Selectivity interaction (Kinase panel (Invitrogen)) EUB0000639a MAP3K20; settings: at 200 nM
[3] = biological target: Cyclin-dependent kinase 18 (Homo sapiens) (UniProt Q07002); assay: Selectivity interaction (ActivX KiNativ screen (kinase selectivity in THP-1 cell lysates)) EUB0000639a CDK18; type: subcellular; settings: lysate
[4] = system: RAF proto-oncogene serine/threonine-protein kinase (Homo sapiens), P04049 [Y340D,Y341D]; assay: Selectivity interaction (LanthaScreen Eu Kinase Binding Assay) EUB0001632a RAF1; settings: at 10 µM
[5] = biological target: T1, MAP/microtubule affinity-regulating kinase 4 (Homo sapiens) (UniProt Q96L34); assay: Selectivity interaction (Kinase panel (Z-LYTE Assay)) EUB0001632a MARK4; settings: at 10 µM
T1 sequence (whole entry): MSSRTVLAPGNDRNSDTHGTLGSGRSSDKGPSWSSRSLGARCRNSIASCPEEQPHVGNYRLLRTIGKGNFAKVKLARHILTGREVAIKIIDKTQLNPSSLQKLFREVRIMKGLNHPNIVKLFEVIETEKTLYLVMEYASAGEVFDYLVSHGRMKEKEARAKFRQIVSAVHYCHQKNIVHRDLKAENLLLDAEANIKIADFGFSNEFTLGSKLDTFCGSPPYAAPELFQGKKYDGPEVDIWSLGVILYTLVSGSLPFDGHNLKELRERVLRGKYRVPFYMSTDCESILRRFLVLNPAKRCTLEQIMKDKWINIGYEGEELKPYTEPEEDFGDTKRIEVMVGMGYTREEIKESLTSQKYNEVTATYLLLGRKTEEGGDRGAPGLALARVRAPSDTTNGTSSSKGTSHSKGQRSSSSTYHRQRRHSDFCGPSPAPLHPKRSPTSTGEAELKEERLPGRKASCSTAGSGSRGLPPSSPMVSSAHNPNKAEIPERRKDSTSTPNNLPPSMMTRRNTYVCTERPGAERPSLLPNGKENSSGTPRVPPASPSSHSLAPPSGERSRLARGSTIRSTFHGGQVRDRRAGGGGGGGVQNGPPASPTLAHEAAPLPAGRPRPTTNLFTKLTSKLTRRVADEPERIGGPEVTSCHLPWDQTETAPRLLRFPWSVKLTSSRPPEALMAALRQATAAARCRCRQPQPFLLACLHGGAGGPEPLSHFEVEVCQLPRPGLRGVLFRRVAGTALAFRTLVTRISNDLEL

[6] = biological target: Mitogen-activated protein kinase kinase kinase kinase 1 (Homo sapiens) (UniProt Q92918); assay: Selectivity interaction (KinomeScan (DiscoverX)) EUB0000695a MAP4K1; settings: at 100 nM
[7] = biological target: Phosphorylase b kinase gamma catalytic chain, skeletal muscle/heart isoform (Homo sapiens) (UniProt Q16816); assay: Selectivity interaction (ProQinase) EUB0000171b PHKG1
[8] = biological target: Tyrosine-protein kinase Fer (Homo sapiens) (UniProt P16591); assay: Selectivity interaction (ProQinase) EUB0000171b FER
[9] = biological target: Serine/threonine-protein kinase/endoribonuclease IRE1 (Homo sapiens) (UniProt O75460); assay: Selectivity interaction (KinomeScan (DiscoverX)) EUB0000045b ERN1
[10] = biological target: 5'-AMP-activated protein kinase catalytic subunit alpha-2 (Homo sapiens) (UniProt P54646); assay: Selectivity interaction (KinomeScan (DiscoverX)) EUB0000045b PRKAA2
[11] = biological target: cAMP-dependent protein kinase catalytic subunit alpha (Homo sapiens, UniProt P17612); assay: Selectivity interaction (KinomeScan (DiscoverX)) EUB0000045b PRKACA
[12] = biological target: Death-associated protein kinase 1 (Homo sapiens, UniProt P53355); assay: Selectivity interaction (Kinase panel (DSF assay)) EUB0001559a DAPK1
[13] = biological target: T2, Serine/threonine-protein kinase DCLK3 (Homo sapiens) (UniProt Q9C098); assay: Selectivity interaction (KinomeScan (DiscoverX)) EUB0000666a DCLK3; settings: at 10 µM
T2 sequence (whole entry): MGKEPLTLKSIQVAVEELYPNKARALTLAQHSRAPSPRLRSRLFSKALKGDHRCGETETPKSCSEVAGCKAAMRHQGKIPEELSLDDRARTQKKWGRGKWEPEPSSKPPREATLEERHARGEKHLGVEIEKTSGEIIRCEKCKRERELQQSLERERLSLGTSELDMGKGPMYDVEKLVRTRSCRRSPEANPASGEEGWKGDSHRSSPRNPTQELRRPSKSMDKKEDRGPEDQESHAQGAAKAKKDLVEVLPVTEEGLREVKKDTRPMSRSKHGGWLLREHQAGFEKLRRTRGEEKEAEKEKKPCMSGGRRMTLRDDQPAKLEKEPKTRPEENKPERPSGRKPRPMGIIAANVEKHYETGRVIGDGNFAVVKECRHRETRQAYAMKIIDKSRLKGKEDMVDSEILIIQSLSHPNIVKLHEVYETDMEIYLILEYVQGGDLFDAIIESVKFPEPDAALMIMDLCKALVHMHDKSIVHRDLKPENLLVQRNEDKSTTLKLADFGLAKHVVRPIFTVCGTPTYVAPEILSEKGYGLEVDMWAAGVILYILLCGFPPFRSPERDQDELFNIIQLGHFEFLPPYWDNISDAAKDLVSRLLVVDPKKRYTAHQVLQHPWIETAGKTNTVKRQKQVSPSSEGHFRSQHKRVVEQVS

Chain of Cyclin-dependent kinase 18 (Homo sapiens) (Q07002 whole entry): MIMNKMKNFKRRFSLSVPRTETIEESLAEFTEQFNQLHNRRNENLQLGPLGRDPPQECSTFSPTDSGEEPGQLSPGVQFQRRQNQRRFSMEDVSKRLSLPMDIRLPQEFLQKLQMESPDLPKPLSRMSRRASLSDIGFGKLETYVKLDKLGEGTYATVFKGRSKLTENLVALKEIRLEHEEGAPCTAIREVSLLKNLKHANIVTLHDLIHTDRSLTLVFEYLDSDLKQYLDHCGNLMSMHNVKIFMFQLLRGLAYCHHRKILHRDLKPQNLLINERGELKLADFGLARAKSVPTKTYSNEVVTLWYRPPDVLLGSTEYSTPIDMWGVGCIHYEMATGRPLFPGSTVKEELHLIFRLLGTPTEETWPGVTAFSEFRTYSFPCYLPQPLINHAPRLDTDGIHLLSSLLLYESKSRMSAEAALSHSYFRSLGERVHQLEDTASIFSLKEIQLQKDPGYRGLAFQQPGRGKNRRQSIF
Chain of 5'-AMP-activated protein kinase catalytic subunit alpha-2 (Homo sapiens) (P54646 whole entry, looked up): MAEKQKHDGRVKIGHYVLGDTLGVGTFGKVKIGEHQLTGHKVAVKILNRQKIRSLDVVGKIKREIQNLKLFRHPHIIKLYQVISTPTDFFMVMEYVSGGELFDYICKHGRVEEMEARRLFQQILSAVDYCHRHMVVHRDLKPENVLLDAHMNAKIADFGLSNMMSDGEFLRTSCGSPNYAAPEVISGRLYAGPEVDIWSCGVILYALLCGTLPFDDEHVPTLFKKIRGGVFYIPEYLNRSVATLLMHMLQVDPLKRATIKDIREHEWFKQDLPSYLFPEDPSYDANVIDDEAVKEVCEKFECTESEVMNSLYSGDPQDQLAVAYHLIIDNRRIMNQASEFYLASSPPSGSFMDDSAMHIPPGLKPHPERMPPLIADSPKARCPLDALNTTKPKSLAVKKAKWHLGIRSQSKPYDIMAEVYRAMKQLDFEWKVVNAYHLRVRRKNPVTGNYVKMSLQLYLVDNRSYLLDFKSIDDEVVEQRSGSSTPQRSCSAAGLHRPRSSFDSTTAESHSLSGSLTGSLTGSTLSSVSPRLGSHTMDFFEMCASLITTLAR
Chain of Tyrosine-protein kinase Fer (Homo sapiens) (P16591 whole entry, looked up): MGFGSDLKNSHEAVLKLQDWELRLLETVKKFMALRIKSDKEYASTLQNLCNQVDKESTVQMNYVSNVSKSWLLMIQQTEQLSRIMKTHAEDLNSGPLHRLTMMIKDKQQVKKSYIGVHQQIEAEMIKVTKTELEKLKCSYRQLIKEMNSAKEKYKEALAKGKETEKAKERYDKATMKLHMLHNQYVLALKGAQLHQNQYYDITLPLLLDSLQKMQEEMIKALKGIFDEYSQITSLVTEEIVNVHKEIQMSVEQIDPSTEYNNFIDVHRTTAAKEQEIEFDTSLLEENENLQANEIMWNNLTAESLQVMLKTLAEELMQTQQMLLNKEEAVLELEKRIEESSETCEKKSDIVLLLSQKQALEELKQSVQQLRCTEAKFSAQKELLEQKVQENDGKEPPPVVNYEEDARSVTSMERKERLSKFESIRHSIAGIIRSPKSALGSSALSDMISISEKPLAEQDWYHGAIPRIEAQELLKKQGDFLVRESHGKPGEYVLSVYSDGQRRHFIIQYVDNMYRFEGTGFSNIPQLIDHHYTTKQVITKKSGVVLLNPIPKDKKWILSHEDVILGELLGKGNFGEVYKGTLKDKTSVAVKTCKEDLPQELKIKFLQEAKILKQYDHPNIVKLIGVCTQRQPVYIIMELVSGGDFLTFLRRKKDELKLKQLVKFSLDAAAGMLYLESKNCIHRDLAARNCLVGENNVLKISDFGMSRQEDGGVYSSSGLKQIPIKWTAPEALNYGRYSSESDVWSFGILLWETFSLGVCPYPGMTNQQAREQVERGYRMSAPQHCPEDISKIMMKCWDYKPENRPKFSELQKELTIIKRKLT
Chain of Serine/threonine-protein kinase/endoribonuclease IRE1 (Homo sapiens) (O75460 19-977 limits assumed): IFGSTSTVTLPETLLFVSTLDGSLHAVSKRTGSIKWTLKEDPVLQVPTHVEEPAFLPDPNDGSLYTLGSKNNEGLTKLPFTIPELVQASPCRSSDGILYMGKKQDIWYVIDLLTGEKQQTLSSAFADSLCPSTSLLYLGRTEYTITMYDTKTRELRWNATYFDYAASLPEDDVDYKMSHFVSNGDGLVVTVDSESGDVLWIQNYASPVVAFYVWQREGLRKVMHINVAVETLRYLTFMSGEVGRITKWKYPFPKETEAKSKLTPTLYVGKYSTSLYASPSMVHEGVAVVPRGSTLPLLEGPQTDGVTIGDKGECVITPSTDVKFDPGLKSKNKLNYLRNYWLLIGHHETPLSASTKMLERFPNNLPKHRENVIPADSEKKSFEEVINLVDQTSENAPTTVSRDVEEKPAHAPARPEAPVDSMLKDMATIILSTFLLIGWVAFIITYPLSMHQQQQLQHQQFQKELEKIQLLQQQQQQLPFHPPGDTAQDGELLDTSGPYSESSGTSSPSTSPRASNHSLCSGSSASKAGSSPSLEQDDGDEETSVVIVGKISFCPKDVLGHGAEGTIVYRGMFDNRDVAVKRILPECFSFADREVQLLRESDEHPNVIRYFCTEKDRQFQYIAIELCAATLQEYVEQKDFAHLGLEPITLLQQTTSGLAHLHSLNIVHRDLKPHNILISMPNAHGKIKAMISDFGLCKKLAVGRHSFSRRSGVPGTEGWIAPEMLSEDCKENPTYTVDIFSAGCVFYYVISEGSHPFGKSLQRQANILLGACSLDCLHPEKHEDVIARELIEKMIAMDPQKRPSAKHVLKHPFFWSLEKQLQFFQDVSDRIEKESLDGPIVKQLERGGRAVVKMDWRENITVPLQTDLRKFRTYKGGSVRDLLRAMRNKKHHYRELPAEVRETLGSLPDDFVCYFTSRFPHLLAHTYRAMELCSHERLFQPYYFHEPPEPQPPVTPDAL
Chain of Phosphorylase b kinase gamma catalytic chain, skeletal muscle/heart isoform (Homo sapiens) (Q16816 whole entry, looked up, canonical isoform): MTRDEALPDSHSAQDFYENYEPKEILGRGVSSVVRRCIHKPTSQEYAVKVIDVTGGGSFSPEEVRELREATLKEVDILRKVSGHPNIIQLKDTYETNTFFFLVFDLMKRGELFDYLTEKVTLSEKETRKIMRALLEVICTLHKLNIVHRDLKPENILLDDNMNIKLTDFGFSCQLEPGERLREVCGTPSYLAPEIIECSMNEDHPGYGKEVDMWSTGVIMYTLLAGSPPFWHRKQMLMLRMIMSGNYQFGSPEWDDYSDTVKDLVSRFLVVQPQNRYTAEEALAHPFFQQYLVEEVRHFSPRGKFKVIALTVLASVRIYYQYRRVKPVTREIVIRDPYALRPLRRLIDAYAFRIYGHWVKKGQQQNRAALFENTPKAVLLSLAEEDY
Chain of Mitogen-activated protein kinase kinase kinase kinase 1 (Homo sapiens) (Q92918 whole entry, looked up, canonical isoform): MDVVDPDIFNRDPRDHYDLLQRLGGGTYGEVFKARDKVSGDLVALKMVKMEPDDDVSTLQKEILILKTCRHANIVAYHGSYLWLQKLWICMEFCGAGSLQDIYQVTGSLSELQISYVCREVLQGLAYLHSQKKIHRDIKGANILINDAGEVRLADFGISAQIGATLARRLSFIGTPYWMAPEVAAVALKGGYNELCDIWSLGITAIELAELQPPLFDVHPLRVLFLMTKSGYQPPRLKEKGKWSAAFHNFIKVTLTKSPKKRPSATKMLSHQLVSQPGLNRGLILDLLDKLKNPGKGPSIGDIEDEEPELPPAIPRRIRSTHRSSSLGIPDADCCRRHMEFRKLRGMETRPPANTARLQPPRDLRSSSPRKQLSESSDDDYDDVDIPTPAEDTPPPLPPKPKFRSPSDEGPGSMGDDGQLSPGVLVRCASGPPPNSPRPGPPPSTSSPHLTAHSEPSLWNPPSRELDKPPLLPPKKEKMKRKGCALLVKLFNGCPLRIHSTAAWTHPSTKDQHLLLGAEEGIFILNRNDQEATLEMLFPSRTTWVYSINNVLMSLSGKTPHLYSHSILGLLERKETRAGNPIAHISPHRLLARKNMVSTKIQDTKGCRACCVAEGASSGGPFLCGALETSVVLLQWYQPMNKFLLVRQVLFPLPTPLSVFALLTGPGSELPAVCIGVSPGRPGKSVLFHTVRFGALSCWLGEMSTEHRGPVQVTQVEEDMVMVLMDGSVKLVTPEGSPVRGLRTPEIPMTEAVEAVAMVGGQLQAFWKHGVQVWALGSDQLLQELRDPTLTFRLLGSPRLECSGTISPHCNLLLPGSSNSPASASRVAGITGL
Chain of Fibroblast growth factor receptor 3 (Homo sapiens), P22607 [G697C] (P22607 whole entry G697C): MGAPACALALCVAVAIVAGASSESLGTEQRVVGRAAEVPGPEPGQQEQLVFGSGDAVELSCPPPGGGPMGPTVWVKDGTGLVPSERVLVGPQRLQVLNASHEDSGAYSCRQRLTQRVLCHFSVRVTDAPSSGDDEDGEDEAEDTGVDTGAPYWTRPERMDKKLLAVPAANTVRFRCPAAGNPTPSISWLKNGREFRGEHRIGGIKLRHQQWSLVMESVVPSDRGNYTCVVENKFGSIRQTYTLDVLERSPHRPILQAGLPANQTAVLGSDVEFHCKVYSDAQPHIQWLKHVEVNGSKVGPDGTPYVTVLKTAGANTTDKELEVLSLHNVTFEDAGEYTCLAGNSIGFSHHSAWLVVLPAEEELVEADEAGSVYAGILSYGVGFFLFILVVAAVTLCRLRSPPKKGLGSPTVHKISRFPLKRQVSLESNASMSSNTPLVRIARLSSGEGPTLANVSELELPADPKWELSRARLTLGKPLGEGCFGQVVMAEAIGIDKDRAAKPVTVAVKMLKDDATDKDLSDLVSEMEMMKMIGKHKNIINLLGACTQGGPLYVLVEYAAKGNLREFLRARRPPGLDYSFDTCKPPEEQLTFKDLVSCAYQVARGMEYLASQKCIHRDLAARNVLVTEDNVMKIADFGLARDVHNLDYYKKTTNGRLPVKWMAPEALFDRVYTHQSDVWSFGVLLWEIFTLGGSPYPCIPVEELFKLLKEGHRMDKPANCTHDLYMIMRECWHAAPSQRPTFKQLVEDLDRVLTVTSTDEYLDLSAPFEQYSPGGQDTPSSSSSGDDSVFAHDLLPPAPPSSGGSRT

Structure (SMILES): Cc1cc([C@@H](C)Nc2ccccc2C(=O)O)c2nc(N3CCOCC3)cc(=O)n2c1 [AZD-6482]
- % of control [1]: 100%

- % of inhibition [2]: 1.12%
- % of inhibition ([3]; at 0.01 µM): -0.6%
- % of inhibition ([3]; at 0.04 µM): 0.5%
- % of inhibition ([3]; at 0.2 µM): -0.8%
- % of inhibition ([3]; at 1 µM): 7.7%
- % of inhibition ([3]; at 5 µM): 41.7%
Structure (SMILES): CC[C@@H]1[C@H](F)C(=O)N[C@@H]1COc1nccc2cc(C(N)=O)c(OC)cc12 [ZIMLOVISERTIB]

- % of inhibition [4]: 5.65%
- % of control [5]: 18.7%
Structure (SMILES): Cn1cc(-n2cnc3c(NCc4nc5cc(Cl)c(Cl)cc5[nH]4)nc(N4CCOCC4)nc32)cn1

Structure (SMILES): Cc1cc(F)c(C(=O)Nc2cccc(-c3nncn3C(C)C)n2)cc1-n1cnc(C2CC2)c1
- % of control [6]: 97%

- % of control ([7]; at 1 µM): 80%
- % of control ([7]; at 5 µM): 44%
- % of control ([8]; at 1 µM): 104%
- % of control ([8]; at 5 µM): 93%
Structure (SMILES): C=CC(=O)Nc1cccc(C(=O)Nc2ccc(Nc3cc(-c4[nH]c(SC)nc4C)ccn3)cc2)c1

Structure (SMILES): C=CC(=O)Nc1cc(-n2c(=O)ccc3cnc4ccc(-c5ccc(NS(C)(=O)=O)cc5)cc4c32)ccc1C
- % of control ([9]; at 1 µM): 100%
- % of control ([9]; at 10 µM): 99%
- % of control ([10]; at 1 µM): 92%
- % of control ([10]; at 10 µM): 92%
- % of control ([11]; at 1 µM): 83%
- % of control ([11]; at 10 µM): 100%

Structure (SMILES): CN(C(=O)c1cnn2cccnc12)c1cc2c(cc1N1CCOCC1)C(=O)N(C[C@@H](F)C(C)(C)O)C2
- dTM [12]: -0.3 K

Structure (SMILES): O=C(NOC[C@H](O)CO)c1ccc(F)c(F)c1Nc1ccc(I)cc1F
- % of control [13]: 100%
